How the values were obtained:
Assay in all cases: cells
Type in all cases: functional, cell-based, Homo sapiens
TE-5 = system: TE-5;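 also: inhibition of cell growth, read out by a cell viability assay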
Description: SANGER: Inhibition of human TE-5 cell growth in a cell viability assay.

EW-18 = system: EW-18;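 also: growth inhibition of EW-18 cells, read out by a cell viability assay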
Description: SANGER: Inhibition of human EW-18 cell growth in a cell viability assay.

MMAC-SF = system: MMAC-SF;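 also: growth inhibition of human MMAC-SF cells, read out with a cell viability assay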
Description: SANGER: Inhibition of human MMAC-SF cell growth in a cell viability assay.

ONS-76 = system: ONS-76;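 also: growth inhibition of human ONS-76 cells, read out with a cell viability assay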
Description: SANGER: Inhibition of human ONS-76 cell growth in a cell viability assay.

KLE = system: KLE;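 also: growth inhibition of human KLE cells, read out with a cell viability assay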
Description: SANGER: Inhibition of human KLE cell growth in a cell viability assay.

MPP-89 = system: MPP-89;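 also: growth inhibition of human MPP-89 cells, read out with a cell viability assay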
Description: SANGER: Inhibition of human MPP-89 cell growth in a cell viability assay.

LB2241-RCC = system: LB2241-RCC;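 also: cell viability assay measuring how strongly the cultured human renal carcinoma line is prevented from growing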
Description: SANGER: Inhibition of human LB2241-RCC cell growth in a cell viability assay.

MHH-NB-11 = system: MHH-NB-11;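 also: growth inhibition of human MHH-NB-11 cells, read out by a cell viability assay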
Description: SANGER: Inhibition of human MHH-NB-11 cell growth in a cell viability assay.

CCRF-CEM = system: CCRF-CEM;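 also: inhibition of CCRF-CEM cell growth, measured by a cell viability assay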
Description: SANGER: Inhibition of human CCRF-CEM cell growth in a cell viability assay.

KGN = system: KGN;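 also: growth inhibition of KGN cells, read out with a cell viability assay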
Description: SANGER: Inhibition of human KGN cell growth in a cell viability assay.

COR-L88 = system: COR-L88;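 also: growth inhibition of COR-L88 cells, read out with a cell viability assay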
Description: SANGER: Inhibition of human COR-L88 cell growth in a cell viability assay.

LB831-BLC = system: LB831-BLC;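 also: growth inhibition of LB831-BLC cells, read out with a cell viability assay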
Description: SANGER: Inhibition of human LB831-BLC cell growth in a cell viability assay.

IST-SL1 = system: IST-SL1;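 also: growth inhibition of human IST-SL1 cells, read out with a cell viability assay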
Description: SANGER: Inhibition of human IST-SL1 cell growth in a cell viability assay.

EOL1 = system: EOL1;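 also: growth inhibition of EoL-1 cells, read out by a cell viability assay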
Description: SANGER: Inhibition of human EoL-1-cell cell growth in a cell viability assay.

ALL-PO = system: ALL-PO;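 also: growth inhibition of ALL-PO cells, read out by a cell viability assay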
Description: SANGER: Inhibition of human ALL-PO cell growth in a cell viability assay.

SK-UT-1 = system: SK-UT-1;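 also: growth inhibition of SK-UT-1 cells, measured by a cell viability assay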
Description: SANGER: Inhibition of human SK-UT-1 cell growth in a cell viability assay.

GI-ME-N = system: GI-ME-N;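 also: growth inhibition of human GI-ME-N cells, read out with a cell viability assay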
Description: SANGER: Inhibition of human GI-ME-N cell growth in a cell viability assay.

NMC-G1 = system: NMC-G1;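 also: growth inhibition of the NMC-G1 cell line, measured with a cell viability read-out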
Description: SANGER: Inhibition of human NMC-G1 cell growth in a cell viability assay.

LB373-MEL-D = system: LB373-MEL-D;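 also: growth inhibition of the cell line, read out in a cell viability assay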
Description: SANGER: Inhibition of human LB373-MEL-D cell growth in a cell viability assay.

A101D = system: A101D;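 also: growth inhibition of the cell line, measured with a viability assay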
Description: SANGER: Inhibition of human A101D cell growth in a cell viability assay.

HOP-62 = system: HOP-62;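 also: cell growth inhibition determined with a viability assay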
Description: SANGER: Inhibition of human HOP-62 cell growth in a cell viability assay.

A3-KAW = system: A3-KAW;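 also: growth inhibition of human A3-KAW cells, read out with a cell viability assay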
Description: SANGER: Inhibition of human A3-KAW cell growth in a cell viability assay.

K562 = system: K562
Description: SANGER: Inhibition of human K-562 cell growth in a cell viability assay.

D-392MG = system: D-392MG
VA-ES-BJ = system: VA-ES-BJ;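 also: growth inhibition of the VA-ES-BJ cell line, read out by a cell viability assay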
Description: SANGER: Inhibition of human VA-ES-BJ cell growth in a cell viability assay.

ML-2 = system: ML-2;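 also: growth inhibition of ML-2 cells, measured with a cell viability readout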
Description: SANGER: Inhibition of human ML-2 cell growth in a cell viability assay.

CGTH-W-1 = system: CGTH-W-1;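 also: growth inhibition of human CGTH-W-1 cells measured by cell viability assay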
Description: SANGER: Inhibition of human CGTH-W-1 cell growth in a cell viability assay.

GR-ST = system: GR-ST
Description: SANGER: Inhibition of human GR-ST cell growth in a cell viability assay.

BE-13 = system: BE-13;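 also: growth inhibition of human BE-13 cells, measured with a cell viability assay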
Description: SANGER: Inhibition of human BE-13 cell growth in a cell viability assay.

HH = system: HH
Description: SANGER: Inhibition of human HH cell growth in a cell viability assay.

TGBC24TKB = system: TGBC24TKB;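 also: growth inhibition of human TGBC24TKB cells, read out with a cell viability assay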
Description: SANGER: Inhibition of human TGBC24TKB cell growth in a cell viability assay.

HC-1 = system: HC-1;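 also: growth inhibition of HC-1 cells measured by a cell viability assay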
Description: SANGER: Inhibition of human HC-1 cell growth in a cell viability assay.

NCI-H1581 = system: NCI-H1581;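 also: cell growth inhibition read out by a viability assay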
Description: SANGER: Inhibition of human NCI-H1581 cell growth in a cell viability assay.

NCI-H526 = system: NCI-H526;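 also: growth inhibition of the human NCI-H526 cell line, measured by a cell viability assay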
Description: SANGER: Inhibition of human NCI-H526 cell growth in a cell viability assay.

KM12 = system: KM12;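 also: KM12 cell growth inhibition, read out with a cell viability assay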
Description: SANGER: Inhibition of human KM12 cell growth in a cell viability assay.

NCI-H1299 = system: NCI-H1299;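 also: growth inhibition of human NCI-H1299 cells, read out by a cell viability assay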
Description: SANGER: Inhibition of human NCI-H1299 cell growth in a cell viability assay.

NB17 = system: NB17;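 also: growth inhibition of NB17 cells, read out with a cell viability assay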
Description: SANGER: Inhibition of human NB17 cell growth in a cell viability assay.

NCI-H1838 = system: NCI-H1838;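 also: growth inhibition of NCI-H1838 cells, determined with a cell viability readout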
Description: SANGER: Inhibition of human NCI-H1838 cell growth in a cell viability assay.

SW 962 = system: SW 962;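 also: growth inhibition of human SW962 cells, read out by a cell viability assay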
Description: SANGER: Inhibition of human SW962 cell growth in a cell viability assay.

KU812 cell line = system: KU812 cell line;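 also: growth inhibition of KU812 cells, read out with a cell viability assay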
Description: SANGER: Inhibition of human KU812 cell growth in a cell viability assay.

LB1047-RCC = system: LB1047-RCC;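 also: inhibition of cell growth, determined with a cell viability assay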
Description: SANGER: Inhibition of human LB1047-RCC cell growth in a cell viability assay.

SK-PN-DW = system: SK-PN-DW;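 also: growth inhibition measured with a viability assay on these cells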
Description: SANGER: Inhibition of human SK-PN-DW cell growth in a cell viability assay.

KALS-1 = system: KALS-1;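 also: growth inhibition of KALS-1 cells, determined with a cell viability assay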
Description: SANGER: Inhibition of human KALS-1 cell growth in a cell viability assay.

KP-N-YS = system: KP-N-YS;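 also: cell viability assay measuring inhibition of cell line growth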
Description: SANGER: Inhibition of human KP-N-YS cell growth in a cell viability assay.

ES8 = system: ES8;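 also: growth inhibition of human ES8 cells, read out with a cell viability assay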
Description: SANGER: Inhibition of human ES8 cell growth in a cell viability assay.

KY821 = system: KY821;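 also: growth inhibition of human KY821 cells, read out by a cell viability assay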
Description: SANGER: Inhibition of human KY821 cell growth in a cell viability assay.

GB-1 = system: GB-1;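 also: growth of GB-1 cells judged by a viability assay, IC50 marks the concentration inhibiting growth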
Description: SANGER: Inhibition of human GB-1 cell growth in a cell viability assay.

NKM-1 = system: NKM-1;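 also: growth inhibition of NKM-1 cells, read out with a cell viability assay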
Description: SANGER: Inhibition of human NKM-1 cell growth in a cell viability assay.

Becker = system: Becker;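 also: growth inhibition of Becker cells, read out with a cell viability assay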
Description: SANGER: Inhibition of human Becker cell growth in a cell viability assay.

Nc1cccc2c1CN(C1CCC(=O)NC1=O)C2=O (configuration not stated) [LENALIDOMIDE]
IC50 (TE-5; Homo sapiens, TE-5): > 5 µM
IC50 (EW-18; Homo sapiens, EW-18): > 5 µM
IC50 (MMAC-SF; Homo sapiens, MMAC-SF): > 5 µM
IC50 (ONS-76; Homo sapiens, ONS-76): > 5 µM
IC50 (KLE; Homo sapiens, KLE): > 5 µM
IC50 (MPP-89; Homo sapiens, MPP-89): > 5 µM
IC50 (LB2241-RCC; Homo sapiens, LB2241-RCC): > 5 µM
IC50 (MHH-NB-11; Homo sapiens, MHH-NB-11): > 5 µM
IC50 (CCRF-CEM; Homo sapiens, CCRF-CEM): > 5 µM
IC50 (KGN; Homo sapiens, KGN): > 5 µM
IC50 (COR-L88; Homo sapiens, COR-L88): > 5 µM
IC50 (LB831-BLC; Homo sapiens, LB831-BLC): > 5 µM
IC50 (IST-SL1; Homo sapiens, IST-SL1): > 5 µM
IC50 (EOL1; Homo sapiens, EOL1): 4.11 µM
IC50 (ALL-PO; Homo sapiens, ALL-PO): > 5 µM
IC50 (SK-UT-1; Homo sapiens, SK-UT-1): > 5 µM
IC50 (GI-ME-N; Homo sapiens, GI-ME-N): > 5 µM
IC50 (NMC-G1; Homo sapiens, NMC-G1): > 5 µM
IC50 (LB373-MEL-D; Homo sapiens, LB373-MEL-D): > 5 µM
IC50 (A101D; Homo sapiens, A101D): > 5 µM
IC50 (HOP-62; Homo sapiens, HOP-62): > 5 µM
IC50 (A3-KAW; Homo sapiens, A3-KAW): > 5 µM
IC50 (K562; Homo sapiens, K562): > 5 µM
IC50 (D-392MG; Homo sapiens, D-392MG): > 5 µM
IC50 (VA-ES-BJ; Homo sapiens, VA-ES-BJ): > 5 µM
IC50 (ML-2; Homo sapiens, ML-2): > 5 µM
IC50 (CGTH-W-1; Homo sapiens, CGTH-W-1): > 5 µM
IC50 (GR-ST; Homo sapiens, GR-ST): > 5 µM
IC50 (BE-13; Homo sapiens, BE-13): > 5 µM
IC50 (HH; Homo sapiens, HH): > 5 µM
IC50 (TGBC24TKB; Homo sapiens, TGBC24TKB): > 5 µM
IC50 (HC-1; Homo sapiens, HC-1): > 5 µM
IC50 (NCI-H1581; Homo sapiens, NCI-H1581): > 5 µM
IC50 (NCI-H526; Homo sapiens, NCI-H526): > 5 µM
IC50 (KM12; Homo sapiens, KM12): > 5 µM
IC50 (NCI-H1299; Homo sapiens, NCI-H1299): > 5 µM
IC50 (NB17; Homo sapiens, NB17): > 5 µM
IC50 (NCI-H1838; Homo sapiens, NCI-H1838): > 5 µM
IC50 (SW 962; Homo sapiens, SW 962): > 5 µM
IC50 (KU812 cell line; Homo sapiens, KU812): > 5 µM
IC50 (LB1047-RCC; Homo sapiens, LB1047-RCC): > 5 µM
IC50 (SK-PN-DW; Homo sapiens, SK-PN-DW): > 5 µM
IC50 (KALS-1; Homo sapiens, KALS-1): > 5 µM
IC50 (KP-N-YS; Homo sapiens, KP-N-YS): > 5 µM
IC50 (ES8; Homo sapiens, ES8): > 5 µM
IC50 (KY821; Homo sapiens, KY821): > 5 µM
IC50 (GB-1; Homo sapiens, GB-1): > 5 µM
IC50 (NKM-1; Homo sapiens, NKM-1): > 5 µM
IC50 (Becker; Homo sapiens, Becker): > 5 µM

Cc1cn(-c2cc(NC(=O)c3ccc(C)c(Nc4nccc(-c5cccnc5)n4)c3)cc(C(F)(F)F)c2)cn1 [NILOTINIB]
IC50 (TE-5; Homo sapiens, TE-5): > 2 µM
IC50 (EW-18; Homo sapiens, EW-18): > 2 µM
IC50 (MMAC-SF; Homo sapiens, MMAC-SF): > 2 µM
IC50 (ONS-76; Homo sapiens, ONS-76): > 2 µM
IC50 (KLE; Homo sapiens, KLE): > 2 µM
IC50 (MPP-89; Homo sapiens, MPP-89): > 2 µM
IC50 (LB2241-RCC; Homo sapiens, LB2241-RCC): 1.02 µM
IC50 (MHH-NB-11; Homo sapiens, MHH-NB-11): > 2 µM
IC50 (CCRF-CEM; Homo sapiens, CCRF-CEM): > 2 µM
IC50 (KGN; Homo sapiens, KGN): > 2 µM
IC50 (COR-L88; Homo sapiens, COR-L88): > 2 µM
IC50 (LB831-BLC; Homo sapiens, LB831-BLC): > 2 µM
IC50 (IST-SL1; Homo sapiens, IST-SL1): > 2 µM
IC50 (EOL1; Homo sapiens, EOL1): < 0.00781 µM
IC50 (ALL-PO; Homo sapiens, ALL-PO): > 2 µM
IC50 (SK-UT-1; Homo sapiens, SK-UT-1): > 2 µM
IC50 (GI-ME-N; Homo sapiens, GI-ME-N): > 2 µM
IC50 (NMC-G1; Homo sapiens, NMC-G1): > 2 µM
IC50 (LB373-MEL-D; Homo sapiens, LB373-MEL-D): > 2 µM
IC50 (A101D; Homo sapiens, A101D): > 2 µM
IC50 (HOP-62; Homo sapiens, HOP-62): 1.82 µM
IC50 (A3-KAW; Homo sapiens, A3-KAW): > 2 µM
IC50 (K562; Homo sapiens, K562): > 2 µM
IC50 (D-392MG; Homo sapiens, D-392MG): > 2 µM
IC50 (VA-ES-BJ; Homo sapiens, VA-ES-BJ): > 2 µM
IC50 (ML-2; Homo sapiens, ML-2): > 2 µM
IC50 (CGTH-W-1; Homo sapiens, CGTH-W-1): 0.649 µM
IC50 (GR-ST; Homo sapiens, GR-ST): > 2 µM
IC50 (BE-13; Homo sapiens, BE-13): 1.27 µM
IC50 (HH; Homo sapiens, HH): > 2 µM
IC50 (TGBC24TKB; Homo sapiens, TGBC24TKB): > 2 µM
IC50 (HC-1; Homo sapiens, HC-1): > 2 µM
IC50 (NCI-H1581; Homo sapiens, NCI-H1581): > 2 µM
IC50 (NCI-H526; Homo sapiens, NCI-H526): > 2 µM
IC50 (KM12; Homo sapiens, KM12): > 2 µM
IC50 (NCI-H1299; Homo sapiens, NCI-H1299): > 2 µM
IC50 (NB17; Homo sapiens, NB17): > 2 µM
IC50 (NCI-H1838; Homo sapiens, NCI-H1838): > 2 µM
IC50 (SW 962; Homo sapiens, SW 962): > 2 µM
IC50 (KU812 cell line; Homo sapiens, KU812): 0.00248 µM
IC50 (LB1047-RCC; Homo sapiens, LB1047-RCC): > 2 µM
IC50 (SK-PN-DW; Homo sapiens, SK-PN-DW): > 2 µM
IC50 (KALS-1; Homo sapiens, KALS-1): > 2 µM
IC50 (KP-N-YS; Homo sapiens, KP-N-YS): > 2 µM
IC50 (ES8; Homo sapiens, ES8): > 2 µM
IC50 (KY821; Homo sapiens, KY821): > 2 µM
IC50 (GB-1; Homo sapiens, GB-1): > 2 µM
IC50 (NKM-1; Homo sapiens, NKM-1): 0.901 µM
IC50 (Becker; Homo sapiens, Becker): > 2 µM

CISPLATIN
IC50 (TE-5; te-5): 211 µM
IC50 (EW-18; ew-18): 35.2 µM
IC50 (MMAC-SF; mmac-sf): 531 µM
IC50 (ONS-76; ons-76): 3.95 µM
IC50 (KLE; kle): 137 µM
IC50 (MPP-89; mpp-89): 16.2 µM
IC50 (LB2241-RCC; lb2241-rcc): 11.3 µM
IC50 (MHH-NB-11; mhh-nb-11): 4.83 µM
IC50 (CCRF-CEM; ccrf-cem): 96 µM
IC50 (KGN; kgn): 17.6 µM
IC50 (COR-L88; cor-l88): 319 µM
IC50 (LB831-BLC; lb831-blc): 225 µM
IC50 (IST-SL1; ist-sl1): 70.6 µM
IC50 (EOL1; eol1): 38 µM
IC50 (ALL-PO; all-po): 31.1 µM
IC50 (SK-UT-1; sk-ut-1): 12.9 µM
IC50 (GI-ME-N; gi-me-n): 11 µM
IC50 (NMC-G1; nmc-g1): 14.5 µM
IC50 (LB373-MEL-D; lb373-mel-d): 11 µM
IC50 (A101D; a101d): 21.7 µM
IC50 (HOP-62; hop-62): 659 µM
IC50 (A3-KAW; a3-kaw): 164 µM
IC50 (K562; k562): 509 µM
IC50 (D-392MG; d-392mg): 11.9 µM
IC50 (VA-ES-BJ; va-es-bj): 2.45 µM
IC50 (ML-2; ml-2): 163 µM
IC50 (CGTH-W-1; cgth-w-1): 4.55 µM
IC50 (GR-ST; gr-st): 7.5 µM
IC50 (BE-13; be-13): 51.1 µM
IC50 (HH; hh): 22.5 µM
IC50 (TGBC24TKB; tgbc24tkb): 39.8 µM
IC50 (HC-1; hc-1): 9.5 µM
IC50 (NCI-H1581; nci-h1581): 12.2 µM
IC50 (NCI-H526; nci-h526): 2.06 µM
IC50 (KM12; km12): 114 µM
IC50 (NCI-H1299; nci-h1299): 26.8 µM
IC50 (NB17; nb17): 69.4 µM
IC50 (NCI-H1838; nci-h1838): 281 µM
IC50 (SW 962; sw 962): 64.6 µM
IC50 (KU812 cell line; ku812): 49 µM
IC50 (LB1047-RCC; lb1047-rcc): 5.89 µM
IC50 (SK-PN-DW; sk-pn-dw): 35 µM
IC50 (KALS-1; kals-1): 71.1 µM
IC50 (KP-N-YS; kp-n-ys): 811 µM
IC50 (ES8; es8): 3.43 µM
IC50 (KY821; ky821): 80 µM
IC50 (GB-1; gb-1): 1.9 µM
IC50 (NKM-1; nkm-1): 6.04 µM
IC50 (Becker; becker): 17.8 µM
